Test results published in ChEMBL document CHEMBL5113469, “Synthesis and biological evaluation of a tumor-selective degrader of PARP1” (Bioorg Med Chem, 2022).
Each block holds one compound with its values, some of them ahead of it. Active and inactive are the calls of the source. The rule behind the calls is not given here.

What was measured:
MDA-MB-436 = assay: Antiproliferative activity against human MDA-MB-436 cells assessed as cell growth inhibition incubated for 5 days by MTT assay; format: functional, cell-based; conditions: MDA-MB-436, 120 h
CAPAN-1 = assay: Antiproliferative activity against human CAPAN-1 cells assessed as cell growth inhibition incubated for 5 days by MTT assay; format: functional, cell-based; conditions: CAPAN-1, 120 h
MDA-MB-468 = assay: Antiproliferative activity against human MDA-MB-468 cells assessed as cell growth inhibition incubated for 5 days by MTT assay; format: functional, cell-based; conditions: MDA-MB-468, 120 h
MDA-MB-231 [1] = assay: Antiproliferative activity against human MDA-MB-231 cells assessed as cell growth inhibition incubated for 5 days by MTT assay; format: functional, cell-based; conditions: MDA-MB-231, 120 h
[2] = target: T1, Protein cereblon/Poly [ADP-ribose] polymerase 1 (Homo sapiens, UniProt P09874+Q96SW2); assay: PROTAC activity at CRBN/PARP1 in human MDA-MB-231 cells assessed as induction of PARP1 degradation at 0.12 to 4 uM incubated for 24 hrs by western blot analysis; format: cell-based; conditions: dose 0.12-4 µM, DDE = dose-dependent effect
Target sequence in this assay (P09874 2-1014 limits assumed): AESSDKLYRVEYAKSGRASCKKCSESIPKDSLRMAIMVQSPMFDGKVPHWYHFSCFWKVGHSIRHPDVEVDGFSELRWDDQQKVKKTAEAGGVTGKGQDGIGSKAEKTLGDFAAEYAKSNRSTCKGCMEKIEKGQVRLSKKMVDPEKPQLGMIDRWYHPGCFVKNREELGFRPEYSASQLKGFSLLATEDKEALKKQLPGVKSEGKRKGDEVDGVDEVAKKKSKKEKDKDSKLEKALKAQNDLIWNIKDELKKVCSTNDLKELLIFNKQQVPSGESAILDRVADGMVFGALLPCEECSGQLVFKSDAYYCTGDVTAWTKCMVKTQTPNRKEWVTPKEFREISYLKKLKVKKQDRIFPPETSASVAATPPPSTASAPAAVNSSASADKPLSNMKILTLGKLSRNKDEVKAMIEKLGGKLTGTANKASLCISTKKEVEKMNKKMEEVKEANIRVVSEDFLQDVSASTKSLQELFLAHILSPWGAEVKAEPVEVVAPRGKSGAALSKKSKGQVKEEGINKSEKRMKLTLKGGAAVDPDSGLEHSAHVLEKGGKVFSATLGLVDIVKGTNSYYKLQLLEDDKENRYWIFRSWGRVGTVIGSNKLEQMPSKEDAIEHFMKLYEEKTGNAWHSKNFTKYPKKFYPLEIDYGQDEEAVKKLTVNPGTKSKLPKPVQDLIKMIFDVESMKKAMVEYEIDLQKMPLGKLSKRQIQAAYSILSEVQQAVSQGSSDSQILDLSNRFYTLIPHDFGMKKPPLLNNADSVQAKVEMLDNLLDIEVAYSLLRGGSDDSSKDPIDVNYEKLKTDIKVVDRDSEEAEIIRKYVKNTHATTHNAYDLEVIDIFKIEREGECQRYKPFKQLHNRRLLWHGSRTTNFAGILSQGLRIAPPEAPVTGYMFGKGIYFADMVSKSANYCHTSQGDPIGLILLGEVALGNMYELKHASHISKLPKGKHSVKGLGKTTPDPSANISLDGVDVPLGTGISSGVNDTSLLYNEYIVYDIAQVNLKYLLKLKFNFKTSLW
Target sequence in this assay (Q96SW2 whole entry partner): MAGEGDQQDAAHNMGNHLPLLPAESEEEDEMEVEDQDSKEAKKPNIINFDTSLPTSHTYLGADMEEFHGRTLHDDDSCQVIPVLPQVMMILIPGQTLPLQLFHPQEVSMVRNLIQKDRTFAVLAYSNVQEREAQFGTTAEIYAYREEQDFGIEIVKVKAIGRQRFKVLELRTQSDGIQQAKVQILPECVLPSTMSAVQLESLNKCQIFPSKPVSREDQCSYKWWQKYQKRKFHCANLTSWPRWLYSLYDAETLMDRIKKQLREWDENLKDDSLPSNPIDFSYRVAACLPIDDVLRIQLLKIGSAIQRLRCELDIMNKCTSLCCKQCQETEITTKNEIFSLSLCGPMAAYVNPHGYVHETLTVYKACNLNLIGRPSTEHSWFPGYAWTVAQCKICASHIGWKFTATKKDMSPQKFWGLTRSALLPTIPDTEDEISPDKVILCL

[3] = target: T1, Protein cereblon/Poly [ADP-ribose] polymerase 1; assay: PROTAC activity at CRBN/PARP1 in human MDA-MB-231 cells assessed as induction of PARP1 degradation at 1 uM incubated for 24 hrs by western blot analysis; format: cell-based
Target sequence in this assay (P09874 2-1014 limits assumed): as the sequence (P09874 2-1014 limits assumed) above
Target sequence in this assay (Q96SW2 whole entry partner): as the sequence (Q96SW2 whole entry partner) above

[4] = target: T1, Protein cereblon/Poly [ADP-ribose] polymerase 1; assay: PROTAC activity at CRBN/PARP1 in human MDA-MB-231 cells assessed as induction of PARP1 degradation incubated for 24 hrs by western blot analysis; format: cell-based
Target sequence in this assay (P09874 whole entry): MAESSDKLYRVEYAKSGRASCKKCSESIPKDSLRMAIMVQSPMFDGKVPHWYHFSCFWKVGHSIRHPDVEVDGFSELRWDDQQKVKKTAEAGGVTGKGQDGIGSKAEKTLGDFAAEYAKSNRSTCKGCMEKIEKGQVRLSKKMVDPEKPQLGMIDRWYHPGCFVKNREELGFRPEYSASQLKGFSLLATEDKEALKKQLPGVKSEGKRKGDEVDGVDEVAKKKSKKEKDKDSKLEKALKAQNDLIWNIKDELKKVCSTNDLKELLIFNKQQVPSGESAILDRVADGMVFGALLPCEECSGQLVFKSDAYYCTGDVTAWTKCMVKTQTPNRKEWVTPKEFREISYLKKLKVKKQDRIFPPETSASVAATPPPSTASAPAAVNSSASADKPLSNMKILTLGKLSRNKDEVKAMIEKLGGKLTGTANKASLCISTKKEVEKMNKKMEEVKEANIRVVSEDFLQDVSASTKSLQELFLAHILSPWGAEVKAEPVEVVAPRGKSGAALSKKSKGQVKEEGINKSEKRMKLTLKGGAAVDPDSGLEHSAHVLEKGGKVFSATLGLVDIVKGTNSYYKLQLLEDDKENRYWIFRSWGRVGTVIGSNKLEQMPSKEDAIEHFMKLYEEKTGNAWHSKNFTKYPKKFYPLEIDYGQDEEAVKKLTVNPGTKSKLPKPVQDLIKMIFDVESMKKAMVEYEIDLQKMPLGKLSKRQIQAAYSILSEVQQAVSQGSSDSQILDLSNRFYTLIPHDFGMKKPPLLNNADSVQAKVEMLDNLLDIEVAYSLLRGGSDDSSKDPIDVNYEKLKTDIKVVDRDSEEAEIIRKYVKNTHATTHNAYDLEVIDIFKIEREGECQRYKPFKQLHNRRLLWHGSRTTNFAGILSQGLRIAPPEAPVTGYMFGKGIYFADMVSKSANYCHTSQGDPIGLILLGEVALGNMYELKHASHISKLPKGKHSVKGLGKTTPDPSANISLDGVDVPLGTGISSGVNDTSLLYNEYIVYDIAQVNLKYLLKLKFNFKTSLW
Target sequence in this assay (Q96SW2 whole entry): as the sequence (Q96SW2 whole entry partner) above

[5] = target: T1, Protein cereblon/Poly [ADP-ribose] polymerase 1; assay: PROTAC activity at CRBN/PARP1 in human MDA-MB-231 cells assessed as induction of PARP1 degradation at 1 uM incubated for 4 hrs by western blot analysis; format: cell-based
Target sequence in this assay (P09874 2-1014 limits assumed): as the sequence (P09874 2-1014 limits assumed) above
Target sequence in this assay (Q96SW2 whole entry partner): as the sequence (Q96SW2 whole entry partner) above

[6] = target: T1, Protein cereblon/Poly [ADP-ribose] polymerase 1; assay: PROTAC activity at CRBN/PARP1 in human L02 cells assessed as induction of PARP1 degradation incubated for 24 hrs by western blot analysis; format: cell-based
Target sequence in this assay (P09874 whole entry): as the sequence (P09874 whole entry) above
Target sequence in this assay (Q96SW2 whole entry): as the sequence (Q96SW2 whole entry partner) above

[7] = target: Poly [ADP-ribose] polymerase 1 (Homo sapiens, UniProt P09874); assay: Binding affinity to PARP1 (unknown origin)
Poly [ADP-ribose] polymerase 1, sequence (P09874 whole entry): as the sequence (P09874 whole entry) above

L02 = assay: Antiproliferative activity against human L02 cells assessed as cell growth inhibition incubated for 5 days by MTT assay; format: toxicity, cell-based; conditions: l02, 120 h, time 5 day
HeLa = assay: Antiproliferative activity against human HeLa cells assessed as cell growth inhibition incubated for 5 days by MTT assay; format: functional, cell-based; conditions: time 5.0 day
HepG2 = assay: Antiproliferative activity against human HepG2 cells assessed as cell growth inhibition incubated for 5 days by MTT assay; format: functional, cell-based; conditions: time 5.0 day
NCI-H2228 = assay: Antiproliferative activity against human NCI-H2228 cells assessed as cell growth inhibition incubated for 5 days by MTT assay; format: functional, cell-based; conditions: time 5.0 day
NCI-H3122 = assay: Antiproliferative activity against human NCI-H3122 cells assessed as cell growth inhibition incubated for 5 days by MTT assay; format: functional, cell-based; conditions: time 5.0 day
SW620/5-FU = assay: Antiproliferative activity against human SW620/5-FU cells assessed as cell growth inhibition incubated for 5 days by MTT assay; format: functional, cell-based; conditions: time 5.0 day
MV4-11 = assay: Antiproliferative activity against human MV4-11 cells assessed as cell growth inhibition incubated for 5 days by MTT assay; format: functional, cell-based; conditions: time 5.0 day
MDA-MB-231 [8] = assay: Antiproliferative activity against human MDA-MB-231 cells assessed as colony growth inhibition at 0.625 to 10 uM incubated for 14 days by MTT assay; format: functional, cell-based; conditions: dose 0.625-10 µM, time 14.0 day, DDE = dose-dependent effect
MDA-MB-231 [9] = assay: Induction of cell cycle arrest in human MDA-MB-231 cells assessed as accumulation at G0/G1 phase at 0.312 uM incubated for 24 hrs by propidium iodide staining based flow cytometry analysis (reference value: 32.62 %); format: functional
MDA-MB-231 [10] = assay: Induction of cell cycle arrest in human MDA-MB-231 cells assessed as accumulation at G2/M phase at 0.312 uM incubated for 24 hrs by propidium iodide staining based flow cytometry analysis (reference value: 27.14 %); format: functional
MDA-MB-231 [11] = assay: Induction of cell cycle arrest in human MDA-MB-231 cells assessed as accumulation at S phase at 0.312 uM incubated for 24 hrs by propidium iodide staining based flow cytometry analysis (reference value: 37.88 %); format: functional
MDA-MB-231 [12] = assay: Induction of cell cycle arrest in human MDA-MB-231 cells assessed as accumulation at G0/G1 phase at 0.625 uM incubated for 24 hrs by propidium iodide staining based flow cytometry analysis (reference value: 32.62 %); format: functional
MDA-MB-231 [13] = assay: Induction of cell cycle arrest in human MDA-MB-231 cells assessed as accumulation at G2/M phase at 0.625 uM incubated for 24 hrs by propidium iodide staining based flow cytometry analysis (reference value: 27.14 %); format: functional
MDA-MB-231 [14] = assay: Induction of cell cycle arrest in human MDA-MB-231 cells assessed as accumulation at S phase at 0.625 uM incubated for 24 hrs by propidium iodide staining based flow cytometry analysis (reference value: 37.88 %); format: functional
MDA-MB-231 [15] = assay: Induction of cell cycle arrest in human MDA-MB-231 cells assessed as accumulation at G0/G1 phase at 1.25 uM incubated for 24 hrs by propidium iodide staining based flow cytometry analysis (reference value: 32.62 %); format: functional
MDA-MB-231 [16] = assay: Induction of cell cycle arrest in human MDA-MB-231 cells assessed as accumulation at G2/M phase at 1.25 uM incubated for 24 hrs by propidium iodide staining based flow cytometry analysis (reference value: 27.14 %); format: functional
MDA-MB-231 [17] = assay: Induction of cell cycle arrest in human MDA-MB-231 cells assessed as accumulation at S phase at 1.25 uM incubated for 24 hrs by propidium iodide staining based flow cytometry analysis (reference value: 37.88 %); format: functional
MDA-MB-231 [18] = assay: Induction of cell cycle arrest in human MDA-MB-231 cells assessed as accumulation at G0/G1 phase at 2.5 uM incubated for 24 hrs by propidium iodide staining based flow cytometry analysis (reference value: 32.62 %); format: functional
MDA-MB-231 [19] = assay: Induction of cell cycle arrest in human MDA-MB-231 cells assessed as accumulation at G2/M phase at 2.5 uM incubated for 24 hrs by propidium iodide staining based flow cytometry analysis (reference value: 27.14 %); format: functional
MDA-MB-231 [20] = assay: Induction of cell cycle arrest in human MDA-MB-231 cells assessed as accumulation at S phase at 2.5 uM incubated for 24 hrs by propidium iodide staining based flow cytometry analysis (reference value: 37.88 %); format: functional
MDA-MB-231 [21] = assay: Induction of cell cycle arrest in human MDA-MB-231 cells assessed as accumulation at G0/G1 phase at 5 uM incubated for 24 hrs by propidium iodide staining based flow cytometry analysis (reference value: 32.62 %); format: functional
MDA-MB-231 [22] = assay: Induction of cell cycle arrest in human MDA-MB-231 cells assessed as accumulation at G2/M phase at 5 uM incubated for 24 hrs by propidium iodide staining based flow cytometry analysis (reference value: 27.14 %); format: functional
MDA-MB-231 [23] = assay: Induction of cell cycle arrest in human MDA-MB-231 cells assessed as accumulation at S phase at 5 uM incubated for 24 hrs by propidium iodide staining based flow cytometry analysis (reference value: 37.88 %); format: functional
MDA-MB-231 [24] = assay: Induction of cell morphological changes in human MDA-MB-231 at 1 uM incubated for 24 hrs by DAPI and Rhodamine staining based immunofluorescence assay; format: functional

SMILES: CN1C(=O)CCC(N2C(=O)c3cccc(NC(=O)CNCCCCCCCCCCC(=O)N4CCN(C(=O)c5cc(Cc6n[nH]c(=O)c7ccccc67)ccc5F)CC4)c3C2=O)C1=O (stereo not drawn)
IC50 (MDA-MB-436): 53 nM | IC50 (CAPAN-1): 160 nM | IC50 (MDA-MB-468): 4070 nM | IC50 (MDA-MB-231 [1]): 4580 nM | Activity [2]: Dde

SMILES: O=C1CCC(N2C(=O)c3cccc(NC(=O)CNCCCCCCCCCCC(=O)N4CCN(C(=O)c5cc(Cc6n[nH]c(=O)c7ccccc67)ccc5F)CC4)c3C2=O)C(=O)N1 (stereo not drawn)
IC50 (MDA-MB-436): 31 nM | IC50 (CAPAN-1): 77 nM | IC50 (MDA-MB-468): 2320 nM | IC50 (MDA-MB-231 [1]): 3920 nM | Activity [3]: Active | DC50 [4]: 53 nM | Activity [5]: 90% | DC50 [6]: 3200 nM | IC50 [7]: 2.95 nM | Activity (L02): Toxic | Activity (HeLa): Active | Activity (HepG2): Active | Activity (NCI-H2228): Active | Activity (NCI-H3122): Active | Activity (SW620/5-FU): Active | Activity (MV4-11): Active | Activity (MDA-MB-231 [8]): Dde | Activity (MDA-MB-231 [9]): 37.11% | Activity (MDA-MB-231 [10]): 28.41% | Activity (MDA-MB-231 [11]): 33.02% | Activity (MDA-MB-231 [12]): 36.68% | Activity (MDA-MB-231 [13]): 29.56% | Activity (MDA-MB-231 [14]): 32.14% | Activity (MDA-MB-231 [15]): 32.03% | Activity (MDA-MB-231 [16]): 35.58% | Activity (MDA-MB-231 [17]): 30.97% | Activity (MDA-MB-231 [18]): 32.48% | Activity (MDA-MB-231 [19]): 37.16% | Activity (MDA-MB-231 [20]): 30.55% | Activity (MDA-MB-231 [21]): 25.81% | Activity (MDA-MB-231 [22]): 41.92% | Activity (MDA-MB-231 [23]): 30.47% | Activity (MDA-MB-231 [24]): Active

SMILES: O=C(c1cc(Cc2n[nH]c(=O)c3ccccc23)ccc1F)N1CCN(C(=O)C2CC2)CC1 [OLAPARIB]
IC50 (MDA-MB-436): 20 nM | IC50 (CAPAN-1): 53 nM | IC50 (MDA-MB-468): 4190 nM | Activity (MDA-MB-231 [9]): 35.88% | Activity (MDA-MB-231 [10]): 26.17% | Activity (MDA-MB-231 [11]): 46.21% | Activity (MDA-MB-231 [12]): 33.68% | Activity (MDA-MB-231 [13]): 31.86% | Activity (MDA-MB-231 [14]): 33.33% | Activity (MDA-MB-231 [15]): 29.71% | Activity (MDA-MB-231 [16]): 34.71% | Activity (MDA-MB-231 [17]): 33.8% | Activity (MDA-MB-231 [18]): 28.07% | Activity (MDA-MB-231 [19]): 37.91% | Activity (MDA-MB-231 [20]): 38.31% | Activity (MDA-MB-231 [21]): 23.6% | Activity (MDA-MB-231 [22]): 39.58% | Activity (MDA-MB-231 [23]): 37.59%

SMILES: O=C1CCC(N2C(=O)c3cccc(NC(=O)CNCC(=O)N4CCN(C(=O)c5cc(Cc6n[nH]c(=O)c7ccccc67)ccc5F)CC4)c3C2=O)C(=O)N1 (stereo not drawn)
IC50 (MDA-MB-436): > 10000 nM | IC50 (CAPAN-1): > 10000 nM | IC50 (MDA-MB-468): > 20000 nM | IC50 (MDA-MB-231 [1]): > 20000 nM

Now from value to compound, other results behind:

IC50 (MDA-MB-436): 76 nM | IC50 (MDA-MB-468): 5030 nM | IC50 (MDA-MB-231 [1]): 7250 nM
SMILES: O=C1CCC(N2C(=O)c3cccc(NC(=O)CNCCCCCCCCCCCCC(=O)N4CCN(C(=O)c5cc(Cc6n[nH]c(=O)c7ccccc67)ccc5F)CC4)c3C2=O)C(=O)N1 (stereo not drawn)
IC50 (CAPAN-1): 240 nM

IC50 (MDA-MB-436): 34 nM | IC50 (MDA-MB-468): 3110 nM | IC50 (MDA-MB-231 [1]): 4130 nM
SMILES: O=C1CCC(N2C(=O)c3cccc(NC(=O)CNCCCCCCCCCCCC(=O)N4CCN(C(=O)c5cc(Cc6n[nH]c(=O)c7ccccc67)ccc5F)CC4)c3C2=O)C(=O)N1 (stereo not drawn)
IC50 (CAPAN-1): 65 nM

IC50 (MDA-MB-436): 130 nM | IC50 (MDA-MB-468): 4350 nM | IC50 (MDA-MB-231 [1]): 5370 nM | Activity [3]: Active
SMILES: O=C1CCC(N2C(=O)c3cccc(NC(=O)CNCCCCCCCCCC(=O)N4CCN(C(=O)c5cc(Cc6n[nH]c(=O)c7ccccc67)ccc5F)CC4)c3C2=O)C(=O)N1 (stereo not drawn)
IC50 (CAPAN-1): 220 nM
